The results in this text go back to PubChem BioAssay AID602128 (The Scripps Research Institute Molecular Screening Center, 2011).

The source made the active and inactive calls. No rule for the calls is given here.

The target of this assay is Mucolipin-3 (Homo sapiens) (UniProt Q8TDD5). Briefly: TRPML3 agonist potency, SAR follow-up, cell-based, HEK293, calcium fluorescence, analogs, round 2 (AID 602128). As to conditions: HEK293 TRPML3 cells.
Chain of Mucolipin-3 (Homo sapiens) (Q8TDD5 whole entry, looked up): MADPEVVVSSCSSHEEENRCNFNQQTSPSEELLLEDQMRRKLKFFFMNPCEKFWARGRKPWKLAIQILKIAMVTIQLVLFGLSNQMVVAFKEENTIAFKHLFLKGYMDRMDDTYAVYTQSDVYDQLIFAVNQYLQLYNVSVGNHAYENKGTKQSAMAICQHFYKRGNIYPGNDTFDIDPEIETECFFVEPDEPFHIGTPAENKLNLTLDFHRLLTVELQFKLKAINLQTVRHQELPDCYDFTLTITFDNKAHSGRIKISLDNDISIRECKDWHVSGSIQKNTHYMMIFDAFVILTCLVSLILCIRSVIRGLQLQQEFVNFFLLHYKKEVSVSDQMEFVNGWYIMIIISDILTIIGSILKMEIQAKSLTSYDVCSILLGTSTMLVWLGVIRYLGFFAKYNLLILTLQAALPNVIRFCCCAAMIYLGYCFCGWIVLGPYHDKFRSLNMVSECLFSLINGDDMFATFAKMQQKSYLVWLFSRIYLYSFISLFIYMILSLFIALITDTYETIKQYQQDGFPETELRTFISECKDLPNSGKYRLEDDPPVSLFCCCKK

For `Cc1ccc(S(=O)(=O)n2nccc2-c2c(-c3ccc(Cl)cc3)noc2C)cc1`, the EC50 (as a rule, the concentration needed to bring the measured effect to its halfway point) was > 29.9 µM (inactive).
As for `Cc1ccc(S(=O)(=O)n2ccc(-c3c(-c4ccc(Cl)cc4)noc3C)n2)cc1`, the figure is 0.291 µM.
